Experimental findings from PubChem BioAssay (NCI) are described below.

“And” between values parts separate entries of the source, which are not always exact repeats. Equal values may be shown once.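 Step 1: Grow cells in 96-well plates. Step 2: Expose to compound for 48 hours at 5 concentrations. Step 3: Interpolate endpoints linearly; if unreached, use highest concentration. Abbreviation: GI50, concentration required for 50% inhibition of growth. At the TGI there is no net growth.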 Bounds are passed on as bounds.

Some test systems named below: KM12 colon; UO-31 renal; EKVX NSCLC; HT29 colon; SK-MEL-28 melanoma; SR leukemia; HS 578T breast; SF-268 CNS; OVCAR-8 ovarian; SK-MEL-2 melanoma.
Common to all, as to assay: inhibition of tumour cell growth, NCI panel, 48 h

`CCCN(CCC)CCCNCc1cc(I)cc(C)c1O`: the GI50 in the assay with KM12 colon was 15 µM; in the assay with UO-31 renal, 17.2 µM; in the assay with EKVX NSCLC it was 15.8 µM; in the assay with HT29 colon it was 7.21 µM; with SK-MEL-28 melanoma it was 15.4 µM; with SR leukemia it was 7.18 µM. Further, the GI50 in the assay on HS 578T breast is 11.1 µM; in the assay on SF-268 CNS, 15.9 µM; in the assay with OVCAR-8 ovarian, 17.4 µM; in the assay with SK-MEL-2 melanoma it was 20.1 µM. Besides, the TGI was 30 µM with KM12 colon; 53.1 µM in the assay on UO-31 renal; 33.7 µM with EKVX NSCLC; 20 µM in the assay with HT29 colon; 28.9 µM in the assay on SK-MEL-28 melanoma; 21.2 µM with SR leukemia. Also, the TGI with HS 578T breast came to 24.6 µM; with SF-268 CNS, 29.4 µM; in the assay with OVCAR-8 ovarian, 35.7 µM; in the assay on SK-MEL-2 melanoma, 36.3 µM.
In the case of `Nc1ccn(C2OC(CO)C(O)C2F)c(=O)n1` (configuration not stated), the GI50 in the assay on KM12 colon was greater than 5000 µM; with UO-31 renal it was greater than 5000 µM; in the assay on EKVX NSCLC it was greater than 5000 µM; in the assay on HT29 colon it was greater than 5000 µM; in the assay with SK-MEL-28 melanoma, greater than 5000 µM; with SR leukemia it was 412 µM and 2500 µM. For the same molecule, the GI50 is greater than 5000 µM with HS 578T breast, greater than 5000 µM with SF-268 CNS, 57.1 µM in the assay on OVCAR-8 ovarian and greater than 5000 µM in the assay on SK-MEL-2 melanoma. Further, the TGI in the assay on KM12 colon, with UO-31 renal, in the assay on EKVX NSCLC, in the assay on HT29 colon, with SK-MEL-28 melanoma and in the assay on SR leukemia was greater than 5000 µM each time. The TGI in the assay on HS 578T breast, in the assay with SF-268 CNS and in the assay with SK-MEL-2 melanoma was greater than 5000 µM throughout.
Consider `COc1cc2c(/C=N\N=C(N)N)c(Cl)[nH]c2cc1C`, for which the GI50 in the assay with KM12 colon was 7.17 µM; in the assay with UO-31 renal, 27.5 µM; in the assay on EKVX NSCLC it was 16.9 µM; in the assay with SR leukemia, 3.34 µM; with HS 578T breast, 10.8 µM; in the assay with SF-268 CNS, 15.2 µM. In addition, the results for the GI50 in the assay on OVCAR-8 ovarian and in the assay with SK-MEL-2 melanoma were 15.4 µM and 34.5 µM, respectively. For the same molecule, the TGI in the assay on KM12 colon was 22.6 µM; in the assay on UO-31 renal, 84.6 µM; in the assay on EKVX NSCLC, 34.5 µM; in the assay on SR leukemia, 8.22 µM; in the assay on HS 578T breast, 32.6 µM; in the assay on SF-268 CNS, 40.7 µM. The TGI in the assay on OVCAR-8 ovarian is 38.6 µM; with SK-MEL-2 melanoma, greater than 100 µM.
Take `O=C(c1ccc2ccccc2c1O)N1CCCCC1`: the TGI in the assay with KM12 colon, in the assay on UO-31 renal, with EKVX NSCLC, with HT29 colon, in the assay with SK-MEL-28 melanoma and in the assay with HS 578T breast was greater than 100 µM in each case. Also, the TGI with SF-268 CNS, in the assay on OVCAR-8 ovarian and in the assay with SK-MEL-2 melanoma was greater than 100 µM each time.
For the molecule `COc1cc(C(=O)OCCCCCCCCCCC[P+](c2ccccc2)(c2ccccc2)c2ccccc2)ccc1O`, the GI50 in the assay with UO-31 renal is 1.69 µM; in the assay with SR leukemia, 0.364 µM; with HS 578T breast, 0.549 µM; in the assay on OVCAR-8 ovarian it was 0.345 µM; with SK-MEL-2 melanoma, 0.522 µM. For the same molecule, the TGI with UO-31 renal came out at 3.17 µM; in the assay on SR leukemia, 2.31 µM; with HS 578T breast, 5.25 µM; with OVCAR-8 ovarian it was 1.53 µM; with SK-MEL-2 melanoma, 1.88 µM.
Consider `O=C(c1ccccc1)c1c(NCC(O)CN2CCCC2)n(Cc2ccccc2)c(=O)n(Cc2ccccc2)c1=O` (configuration not stated), for which the GI50 in the assay with KM12 colon was 15.8 µM; in the assay on UO-31 renal, 18.8 µM; with EKVX NSCLC it was 19.6 µM; in the assay on HT29 colon it was 17.3 µM; in the assay with SK-MEL-28 melanoma it was 17.6 µM; with HS 578T breast, 16.2 µM. Further, the GI50 is 19.6 µM with SF-268 CNS, 18.5 µM in the assay on OVCAR-8 ovarian and 20.5 µM with SK-MEL-2 melanoma. The TGI in the assay on KM12 colon was determined as 31.7 µM; in the assay on UO-31 renal, 40.2 µM; with EKVX NSCLC, 49.1 µM; with HT29 colon, 33.6 µM; with SK-MEL-28 melanoma, 32.3 µM; with HS 578T breast, 37.8 µM. For the same molecule, the TGI is 40.8 µM in the assay on SF-268 CNS, 36.2 µM in the assay with OVCAR-8 ovarian and 39 µM in the assay on SK-MEL-2 melanoma.
For `O=[N+]([O-])c1ccc(Nc2ccccc2-c2ccccc2)c2nonc12`, the GI50 in the assay on KM12 colon is 13.9 µM; with UO-31 renal it was 8.14 µM; with EKVX NSCLC, 15.5 µM; in the assay on HT29 colon it was 19.3 µM; in the assay with SK-MEL-28 melanoma, 17.2 µM; in the assay with HS 578T breast, 15.2 µM. The figures for the GI50 in the assay on SF-268 CNS, with OVCAR-8 ovarian and with SK-MEL-2 melanoma were 14.9 µM, 21.1 µM and 6.16 µM, respectively. Besides, the TGI in the assay on KM12 colon amounted to 32.5 µM; with UO-31 renal, 29.9 µM; in the assay on EKVX NSCLC, 64.1 µM; with HT29 colon, 47.2 µM; in the assay with SK-MEL-28 melanoma, 45.3 µM; in the assay on HS 578T breast it was 62.8 µM. Besides, the TGI was found to be 36.8 µM in the assay on SF-268 CNS, 75.9 µM in the assay with OVCAR-8 ovarian and 20.3 µM with SK-MEL-2 melanoma.
As to `Cc1[nH]ncc1-c1cc2nc(C3CC4CCN3CC4)[nH]c(=O)c2s1` (configuration not stated), the GI50 with KM12 colon was 4.07 µM; with UO-31 renal it was 2.91 µM; in the assay on EKVX NSCLC it was 4.3 µM; with HT29 colon it was 3.85 µM; in the assay on SK-MEL-28 melanoma, 4.94 µM; in the assay on HS 578T breast it was 3.87 µM. The GI50 in the assay on SF-268 CNS was 3.8 µM; in the assay with OVCAR-8 ovarian, 3.2 µM; with SK-MEL-2 melanoma it was 8.8 µM. Also, the TGI in the assay on KM12 colon is greater than 100 µM; in the assay with UO-31 renal, greater than 100 µM; in the assay on EKVX NSCLC, 90.2 µM; with HT29 colon it was greater than 100 µM; in the assay on SK-MEL-28 melanoma it was greater than 100 µM; with HS 578T breast, greater than 100 µM. Also, the figures for the TGI with SF-268 CNS, with OVCAR-8 ovarian and with SK-MEL-2 melanoma were greater than 100 µM, greater than 100 µM and 29.5 µM, respectively.
As to `COc1cc(-c2nn3c(/C=C4/C(=O)Nc5ccccc54)c(-c4ccc(C)cc4)nc3s2)cc(OC)c1OC`, the GI50 is greater than 100 µM in the assay with KM12 colon; 8.44 µM with UO-31 renal; 2.35 µM in the assay on SR leukemia; 0.505 µM with HS 578T breast; 3.62 µM in the assay with SF-268 CNS; 3.71 µM in the assay with OVCAR-8 ovarian. Further, in the assay with SK-MEL-2 melanoma, the GI50 is 16.3 µM. In addition, the TGI in the assay on KM12 colon was greater than 100 µM; in the assay on UO-31 renal it was greater than 100 µM; in the assay on SR leukemia it was greater than 100 µM; in the assay on HS 578T breast it was 7.49 µM; in the assay on SF-268 CNS it was greater than 100 µM; in the assay on OVCAR-8 ovarian, greater than 100 µM. In the assay with SK-MEL-2 melanoma, the TGI was 30.9 µM.
